Assay results as given in patent US20120252829A1, “TIVOZANIB AND CAPECITABINE COMBINATION THERAPY” (priority 2011, published 2012).
Read-outs that look alike come from different tables or passages of the source.

Assays:
[1] = tested on: Her2-driven breast tumor (BH) model; test: tumor growth in Her2-driven breast tumor (BH) mouse model; format: in vivo; conditions: tivozanib 5 mg/kg daily, capecitabine 300 mg/kg daily 2 weeks on, 1 week off, oral, more than 4 weeks; FIG. 1
Description: (§1) The Her2-driven breast tumor (BH) model used herein has the following genotype: MMTVrTTA, tetO HER2, INK4A(−/−), luciferase reporter.
When tumors reached approximately 200 mm^3, the mice were randomized into 4 groups of 10 mice each. One group received vehicle control. Each of the other 3 groups were treated with one of the two agents either administered alone or in combination. Both agents were administered orally.
Capecitabine was dosed at 300 mg/kg daily for two weeks followed by a one week break (2 weeks on, 1 week off) for more than 4 weeks.

[2] = oral administration of capecitabine; human xenograft tumors in mice; cited from earlier work
tumor blood vessels = test: inhibition of angiogenesis in tumors; format: in vivo, mouse; conditions: tivozanib 5 mg/kg daily 5 weeks, capecitabine 300 mg/kg daily two weeks, seven day break, FIG. 4
Description: An experiment was designed to evaluate the effect of the combination therapy on angiogenesis (FIG. 4). Tivozanib was dosed at 5 mg/kg daily for 5 weeks. Capecitabine was dosed at 300 mg/kg daily for two weeks, followed by a seven day break, and then an additional two weeks of capecitabine at 300 mg/kg daily.

[3] = cited from earlier work
[4] = tested on: Her2-driven breast tumor (BH) model; test: tumor cell proliferation by Ki67 immunohistochemistry; format: in vivo, mouse
Description: as §1
To determine the mechanism of action of the combination therapy, capecitabine was administered alone and in combination with tivozanib, over two dosage cycles (FIG. 2A). Capecitabine was dosed at 300 mg/kg daily for two weeks, followed by a seven day break, and then an additional two weeks of capecitabine at 300 mg/kg daily. Tivozanib was dosed at 5 mg/kg daily for 5 weeks.

[5] = cited from earlier work; remark: listed apart in the source
[6] = tested on: thymidine phosphorylase (TP); conditions: BH216 tumors; one dose at or about maximum tolerated dosage; tumors collected after 6 hours (also 24 hours for B20-4.1)
Description: Each of the VEGF inhibitors were administered at or about their respective maximum tolerated dosages.

[7] = 272-patient Phase 2 clinical trial; cited from earlier work
tumor = conditions: preclinical models; cited from earlier work
[8] = tested on: thymidine phosphorylase (TP); test: TP expression in murine breast tumors after tivozanib, qRT-PCR
Description: Murine breast tumors (BH216, BH225, BH229 and BH281) were introduced subcutaneously into nude mice. For each tumor type, when tumors reached approximately 250 mm^3, the mice were randomized into five groups, with three mice in each group. One group received vehicle (0.5% methyl-cellulose) and the remaining groups each received one dose of 5 mg/kg tivozanib. The mice were sacrificed and tumors collected at 0.5, 2, 6 and 16 hours post-dose. RNA was extracted from the tumors and TP expression was analyzed with qRT-PCR.

VEGF receptor 3 = VEGF receptor 3 (Homo sapiens, UniProt P35916); conditions: cited from earlier work
Sequence of VEGF receptor 3 (P35916 25-1363): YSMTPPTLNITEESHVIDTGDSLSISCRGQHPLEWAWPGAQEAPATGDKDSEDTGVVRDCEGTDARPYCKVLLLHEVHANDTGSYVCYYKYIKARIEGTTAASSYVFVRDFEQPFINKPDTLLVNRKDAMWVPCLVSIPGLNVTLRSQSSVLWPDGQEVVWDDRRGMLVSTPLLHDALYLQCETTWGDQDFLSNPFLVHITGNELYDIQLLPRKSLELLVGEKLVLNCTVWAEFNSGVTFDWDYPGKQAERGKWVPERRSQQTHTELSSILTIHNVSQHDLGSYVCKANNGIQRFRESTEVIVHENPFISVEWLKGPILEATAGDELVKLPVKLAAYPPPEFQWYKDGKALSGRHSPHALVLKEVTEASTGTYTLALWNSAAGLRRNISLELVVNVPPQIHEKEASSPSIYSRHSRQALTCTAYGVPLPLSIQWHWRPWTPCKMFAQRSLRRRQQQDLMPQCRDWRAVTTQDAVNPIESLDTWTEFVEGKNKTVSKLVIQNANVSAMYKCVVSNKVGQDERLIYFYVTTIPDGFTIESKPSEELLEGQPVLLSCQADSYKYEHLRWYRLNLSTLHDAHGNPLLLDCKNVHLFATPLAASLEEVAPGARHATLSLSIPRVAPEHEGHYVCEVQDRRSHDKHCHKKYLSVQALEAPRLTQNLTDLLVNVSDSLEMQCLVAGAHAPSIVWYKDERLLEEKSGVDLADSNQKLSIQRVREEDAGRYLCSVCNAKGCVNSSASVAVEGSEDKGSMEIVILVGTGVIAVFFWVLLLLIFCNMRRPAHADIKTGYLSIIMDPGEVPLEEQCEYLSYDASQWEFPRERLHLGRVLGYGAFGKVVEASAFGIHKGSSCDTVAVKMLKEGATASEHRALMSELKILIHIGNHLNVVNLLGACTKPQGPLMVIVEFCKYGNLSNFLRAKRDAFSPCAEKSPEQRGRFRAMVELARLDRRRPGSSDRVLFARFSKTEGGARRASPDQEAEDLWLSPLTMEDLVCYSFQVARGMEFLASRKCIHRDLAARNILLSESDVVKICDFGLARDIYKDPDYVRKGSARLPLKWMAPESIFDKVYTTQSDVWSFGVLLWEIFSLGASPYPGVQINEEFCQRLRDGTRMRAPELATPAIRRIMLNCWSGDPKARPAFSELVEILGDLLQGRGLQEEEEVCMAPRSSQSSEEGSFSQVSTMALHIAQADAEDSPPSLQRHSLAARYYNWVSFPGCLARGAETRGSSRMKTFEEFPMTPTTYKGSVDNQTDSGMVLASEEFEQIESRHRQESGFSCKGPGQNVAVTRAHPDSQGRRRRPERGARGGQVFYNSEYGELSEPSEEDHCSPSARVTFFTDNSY

[9] = tested on: thymidine phosphorylase (TP); test: TP induction in BH216-derived primary culture, qRT-PCR; format: cell-based, mouse; conditions: cultured BH216 tumor cells; 0.01-1000 nM, 3 hours

In the case of `CCCCCOC(=O)Nc1nc(=O)n([C@@H]2O[C@H](C)[C@@H](O)[C@H]2O)cc1F` [capecitabine, 5′-deoxy-5-fluoro-N-[(pentyloxy)carbonyl]-cytidine], the tumor growth [1] is listed as “only moderate reduction in tumor growth”, the “5-FU AUC in tumors versus plasma” value [2] is listed as 100-200 fold and the angiogenesis (tumor blood vessels) is listed as “no change in the angiogenesis profile”. The elimination half-life ([3]; human body) was “approximately ¾”, the tumor cell proliferation ([4]; capecitabine 300 mg/kg daily, first two weeks) was “reduced tumor cell proliferation” and the “tumor cell proliferation between capecitabine cycles” value ([4]; during break periods) was “tumor cell proliferation rebound”. For the same compound, the side effects ([5]; capecitabine, can be severe) was “hand-and-foot syndrome (pain, swelling or redness of your hands or feet), diarrhea, nausea, vomiting, dehydration, sores in the mouth and throat, stomach area pain, tiredness or weakness, fever, and joint and muscle pain”.
For `O=c1[nH]cc(F)c(=O)[nH]1` [fluorouracil, 5-fluoro-2,4-(1H,3H)-pyrimidinedione], the “area under the curve (AUC) of fluorouracil, higher at day 14 than day 1” value ([3]; after capecitabine, day 14 vs day 1) is listed as 35% and the “half-life of primary metabolite of capecitabine” value ([3]; relative to parent compound) is listed as “same approximate half-life of the parent compound”.
For `COc1cc2nccc(Oc3ccc(NC(=O)Nc4cc(C)on4)c(Cl)c3)c2cc1OC` [tivozanib, N-{2-chloro-4-[(6,7-dimethoxy-4-quinolyl)oxy]-phenyl}-N′-(5-methyl-3-isoxazolyl)urea], the TP induction [6] is listed as “significant TP induction”, the tumor growth [1] is listed as “only moderate reduction in tumor growth” and the clinical trial results [7] is listed as “positive results”. For the same compound, the angiogenesis (tumor blood vessels) was “only a reduction in vessel size but not microvessel density”, the “time for serum levels to reach steady state” value ([3]; chronic dosing) was 2-3 weeks and the half-life ([3]; human body) was 91.2 to 113 h. The “most common side effects” value ([5]; Phase 1, Phase 2 and Phase 3 clinical trials) was “hypertension and dysphonia”, the antitumor activity (tumor) was “exhibits antitumor activity” and the “up-regulation of TP” value ([8]; BH216 tumors, 6 hours after tivozanib 5 mg/kg) was “approximately 8 fold”. For the same compound, the TP expression ([8]; BH216 tumors, 16 hours post-dose, tivozanib 5 mg/kg) was “significant elevation in TP expression”, the TP up-regulation ([8]; BH229 tumor, tivozanib 5 mg/kg) was “no TP up-regulation” and the TP up-regulation ([8]; BH281 tumor, tivozanib 5 mg/kg) was “no TP up-regulation”. The inhibitory activity (VEGF receptor 3) was “picomolar” and the TP induction [9] was “TP induction was observed”.
